Experimental data as given in patent publication US20100099314A1, “IONIC LIQUIDS DERIVED FROM SURFACTANTS” (priority 2004, published 2010).

Assay: Water Miscibility Test
Assay type: physicochemical
Details: 0.5 g ionic liquid and 4.5 g de-ionized water, sonicated 1.5 hours; miscible if homogenous transparent system within 15 minutes of standing
Procedure: The water miscibility of an ionic liquid is measured by the following water miscibility test. A mixture of 0.5 g ionic liquid and 4.5 g de-ionized water are sonicated in a Bransonic Ultrasonic Bath (model# 1210R-MTH, 50/60 Hz, 117 volts, 1.3 AMPS) according to manufacture's specifications for 1.5 hours. Thereafter, if a homogenous transparent system results within 15 minutes of standing without agitation, then the ionic liquid is water miscible.

Compound	Water Miscible?
CC(C)CC(C)CC(CC(C)C)OCCOCCOCCOS(=O)(=O)[O-].CCCCCCCCCCCC[N+](C)(C)O (centres unmarked) [Example 1, N-dodecyl-N,N-dimethylamine N-oxide 2,4,8-trimethylnonyl-6-triethoxysulfate]	No
CCCCCCCCCCCCOCCOS(=O)(=O)[O-].CCCCCCCCCCCC[N+](C)(C)O [Example 2, N-dodecyl-N,N-dimethylamine N-oxide dodecylethoxysulfate]	No
